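Where inhibition never reached the appropriate level, the endpoint shown equals the highest concentration tested. Otherwise, values were interpolated linearly from a five-concentration, 48-hour dose response in 96-well plates. GI50 = concentration required for 50% inhibition of growth. At the TGI there is no net growth.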 Where only a bound is given, the exact number is not on record here.

Among the test systems are BT-549 breast; HCT-116 colon; HL-60(TB) leukemia; HOP-62 NSCLC; HT29 colon; MALME-3M melanoma; MOLT-4 leukemia; RPMI-8226 leukemia; SF-539 CNS; SW-620 colon.
What all share (test): growth of human tumour cells (NCI), 48 h

Turning to `Cc1cc2c(cc1Cl)SC1=NN(C)C(N(C)C)N1S2(=O)=O` (stereo not given), the GI50 in the assay with BT-549 breast, in the assay on HCT-116 colon, with HL-60(TB) leukemia, with HOP-62 NSCLC, in the assay with HT29 colon and in the assay on MALME-3M melanoma was greater than 100 µM each time. The GI50 in the assay on MOLT-4 leukemia, in the assay with RPMI-8226 leukemia, in the assay with SF-539 CNS and with SW-620 colon was greater than 100 µM in each case. Also, the TGI in the assay with BT-549 breast, in the assay on HCT-116 colon, in the assay on HL-60(TB) leukemia, with HOP-62 NSCLC, in the assay on HT29 colon and in the assay on MALME-3M melanoma was greater than 100 µM each time. For the same compound, the TGI in the assay with MOLT-4 leukemia, in the assay with RPMI-8226 leukemia, in the assay on SF-539 CNS and in the assay with SW-620 colon was greater than 100 µM in each case.

With `CCOc1cccc(/C=N/NC(=O)C(=O)Nc2cccc(C(F)(F)F)c2)c1O`, the GI50 with BT-549 breast is 5.36 µM; in the assay with HCT-116 colon, 1.02 µM; in the assay on HL-60(TB) leukemia it was 0.89 µM; in the assay with HOP-62 NSCLC, 3.1 µM; in the assay with HT29 colon it was 6.51 µM; in the assay with MALME-3M melanoma, 4.35 µM. In addition, the GI50 is 1.35 µM in the assay with MOLT-4 leukemia, 2.08 µM in the assay with RPMI-8226 leukemia, 2.18 µM with SF-539 CNS and 3.09 µM in the assay with SW-620 colon. Further, the TGI in the assay with BT-549 breast was greater than 100 µM; with HCT-116 colon, greater than 100 µM; with HL-60(TB) leukemia it was 4.45 µM; in the assay with HOP-62 NSCLC it was 53.6 µM; in the assay on HT29 colon it was greater than 100 µM; with MALME-3M melanoma, 64.2 µM. In addition, the TGI in the assay with MOLT-4 leukemia was 22 µM; in the assay on RPMI-8226 leukemia it was greater than 100 µM; in the assay with SF-539 CNS, 11.2 µM; in the assay on SW-620 colon, greater than 100 µM.

`Fc1cc2[nH]ncc2c2c3c(c(-c4cn[nH]c4C(F)(F)F)nc12)C1CCC3C1` (stereo not given): the GI50 was 0.883 µM in the assay on BT-549 breast; 0.642 µM in the assay on HCT-116 colon; 1.1 µM in the assay on HL-60(TB) leukemia; 0.97 µM in the assay with HOP-62 NSCLC; 1.47 µM in the assay with HT29 colon; 1.45 µM in the assay on MALME-3M melanoma. For the same compound, the GI50 in the assay on MOLT-4 leukemia is 0.99 µM; in the assay on RPMI-8226 leukemia, 0.804 µM; in the assay on SF-539 CNS it was 0.82 µM; in the assay on SW-620 colon, 0.982 µM. In addition, the TGI stood at 2.97 µM with BT-549 breast; 5.55 µM with HCT-116 colon; 2.6 µM in the assay with HL-60(TB) leukemia; 3.75 µM in the assay on HOP-62 NSCLC; 10.5 µM in the assay with HT29 colon; 4.85 µM in the assay on MALME-3M melanoma. In addition, the TGI in the assay on MOLT-4 leukemia was found to be 4.31 µM; with RPMI-8226 leukemia, 3.54 µM; in the assay on SF-539 CNS, 2.1 µM; in the assay with SW-620 colon, 5.13 µM.

On to `COc1cc(C(=O)Nc2cc3c(cc2Oc2cc(C)cc(C)c2)C(=O)N(C)[C@@H](CC(=O)N(C)O)C(=O)N3)c(Br)c(OC)c1OC`, for which the GI50 in the assay on BT-549 breast, with HCT-116 colon, in the assay on HL-60(TB) leukemia, in the assay on HOP-62 NSCLC, in the assay on HT29 colon and in the assay on MALME-3M melanoma was less than 0.00333 µM each time. The GI50 in the assay with MOLT-4 leukemia, in the assay on RPMI-8226 leukemia, in the assay on SF-539 CNS and in the assay on SW-620 colon was less than 0.00333 µM each time. Further, the TGI in the assay on BT-549 breast is less than 0.00333 µM; in the assay with HCT-116 colon it was less than 0.00333 µM; in the assay on HL-60(TB) leukemia, less than 0.00333 µM; with HOP-62 NSCLC, 0.00372 µM; with HT29 colon it was less than 0.00333 µM; in the assay with MALME-3M melanoma, less than 0.00333 µM. Moreover, the TGI was less than 0.00333 µM in the assay on MOLT-4 leukemia, less than 0.00333 µM with RPMI-8226 leukemia, less than 0.00333 µM in the assay on SF-539 CNS and 0.0149 µM in the assay with SW-620 colon.

Take `Nc1ccc(C(=O)CC(N)C(=O)O)cc1O` (stereo not given): the TGI in the assay with BT-549 breast, in the assay with HCT-116 colon, with HL-60(TB) leukemia, with HOP-62 NSCLC, with HT29 colon and with MALME-3M melanoma was greater than 100 µM each time. In addition, the TGI in the assay on MOLT-4 leukemia, in the assay with RPMI-8226 leukemia, with SF-539 CNS and with SW-620 colon was greater than 100 µM in each case.

With `COc1ccc(N2C(=O)[C@H]3CC(C)c4c([nH]c5ccccc45)[C@H]3C2=O)cc1` (stereo not given in full), the TGI is greater than 80.7 µM in the assay on BT-549 breast; 30.8 µM in the assay with HCT-116 colon; 20.1 µM with HL-60(TB) leukemia; 16.3 µM in the assay with HOP-62 NSCLC; 21 µM in the assay with HT29 colon; 33.9 µM in the assay with MALME-3M melanoma. Moreover, the TGI in the assay with MOLT-4 leukemia was 49.4 µM; with RPMI-8226 leukemia, 39.3 µM; in the assay with SF-539 CNS, 10.5 µM; in the assay with SW-620 colon it was greater than 86.8 µM.

On to `COc1ccc(-c2ccc(-c3ccc(C(=N)N)cn3)o2)cc1`, for which the GI50 is 10.7 µM in the assay with BT-549 breast; 3.26 µM with HCT-116 colon; 2.14 µM in the assay on HL-60(TB) leukemia; 10.5 µM with HOP-62 NSCLC; 3.4 µM in the assay with HT29 colon; 3.25 µM with MALME-3M melanoma. Also, the GI50 is 4.4 µM in the assay on MOLT-4 leukemia, 2.78 µM in the assay on RPMI-8226 leukemia, 4.74 µM in the assay on SF-539 CNS and 4.05 µM in the assay on SW-620 colon. In addition, the TGI came out at 22.8 µM in the assay with BT-549 breast; 12.9 µM in the assay on HCT-116 colon; 5.7 µM in the assay with HL-60(TB) leukemia; 22.6 µM with HOP-62 NSCLC; 11.1 µM in the assay on HT29 colon; 7.32 µM in the assay with MALME-3M melanoma. For the same compound, the TGI in the assay with MOLT-4 leukemia amounted to 15.5 µM; in the assay with RPMI-8226 leukemia, 10.1 µM; in the assay with SF-539 CNS it was 17.8 µM; with SW-620 colon, 16 µM.
